# ChEMBL document CHEMBL5506047, “Impact of Combinatorial Histone Modifications on Acetyllysine Recognition by the ATAD2 and ATAD2B Bromodomains” (J Med Chem, 2024)
# Key:
# [1] = biological target: T1, ATPase family AAA domain-containing protein 2 (Homo sapiens, UniProt Q6PL18); experiment: Binding affinity to human ATAD2 BRD assessed as dissociation constant by isothermal titration calorimetry
# T1 sequence (Q6PL18 whole entry): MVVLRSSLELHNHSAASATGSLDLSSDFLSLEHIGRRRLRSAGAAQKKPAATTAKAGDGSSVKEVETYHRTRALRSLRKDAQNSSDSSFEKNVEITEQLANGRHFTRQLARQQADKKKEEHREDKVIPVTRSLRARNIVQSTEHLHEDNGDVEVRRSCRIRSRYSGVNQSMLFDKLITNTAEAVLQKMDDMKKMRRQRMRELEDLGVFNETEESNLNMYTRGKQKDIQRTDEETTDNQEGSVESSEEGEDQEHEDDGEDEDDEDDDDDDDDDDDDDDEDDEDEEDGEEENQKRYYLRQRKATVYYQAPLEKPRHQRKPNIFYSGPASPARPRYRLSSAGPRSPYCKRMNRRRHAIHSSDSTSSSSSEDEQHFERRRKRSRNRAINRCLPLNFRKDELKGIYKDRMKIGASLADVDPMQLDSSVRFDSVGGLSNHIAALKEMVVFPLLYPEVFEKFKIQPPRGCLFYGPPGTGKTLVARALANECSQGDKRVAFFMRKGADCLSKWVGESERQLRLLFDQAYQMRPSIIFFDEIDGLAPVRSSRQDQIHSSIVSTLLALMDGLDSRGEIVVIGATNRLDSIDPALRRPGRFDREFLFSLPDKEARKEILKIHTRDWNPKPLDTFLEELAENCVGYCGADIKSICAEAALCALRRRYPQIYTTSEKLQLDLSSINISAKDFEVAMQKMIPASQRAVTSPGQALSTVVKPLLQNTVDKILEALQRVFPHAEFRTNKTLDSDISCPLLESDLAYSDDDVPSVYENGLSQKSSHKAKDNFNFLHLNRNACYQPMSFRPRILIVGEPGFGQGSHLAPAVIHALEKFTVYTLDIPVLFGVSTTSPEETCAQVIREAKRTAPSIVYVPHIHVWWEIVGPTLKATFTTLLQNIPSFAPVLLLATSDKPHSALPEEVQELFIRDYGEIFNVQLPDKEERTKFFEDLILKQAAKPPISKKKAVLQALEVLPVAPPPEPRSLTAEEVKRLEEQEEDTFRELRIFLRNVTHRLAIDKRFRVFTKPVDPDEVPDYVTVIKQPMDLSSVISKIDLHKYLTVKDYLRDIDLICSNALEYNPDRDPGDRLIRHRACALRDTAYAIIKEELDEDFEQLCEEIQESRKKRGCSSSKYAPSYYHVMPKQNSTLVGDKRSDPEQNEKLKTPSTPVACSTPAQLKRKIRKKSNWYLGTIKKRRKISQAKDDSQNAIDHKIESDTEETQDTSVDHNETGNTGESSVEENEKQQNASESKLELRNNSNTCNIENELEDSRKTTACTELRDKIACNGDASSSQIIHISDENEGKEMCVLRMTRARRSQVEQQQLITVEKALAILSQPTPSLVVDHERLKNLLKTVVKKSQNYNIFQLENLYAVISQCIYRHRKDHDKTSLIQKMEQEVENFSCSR
# [2] = biological target: T2, ATPase family AAA domain-containing protein 2B (Homo sapiens, UniProt Q9ULI0); experiment: Binding affinity to human ATAD2B BRD assessed as dissociation constant by isothermal titration calorimetry
# T2 sequence (Q9ULI0 whole entry): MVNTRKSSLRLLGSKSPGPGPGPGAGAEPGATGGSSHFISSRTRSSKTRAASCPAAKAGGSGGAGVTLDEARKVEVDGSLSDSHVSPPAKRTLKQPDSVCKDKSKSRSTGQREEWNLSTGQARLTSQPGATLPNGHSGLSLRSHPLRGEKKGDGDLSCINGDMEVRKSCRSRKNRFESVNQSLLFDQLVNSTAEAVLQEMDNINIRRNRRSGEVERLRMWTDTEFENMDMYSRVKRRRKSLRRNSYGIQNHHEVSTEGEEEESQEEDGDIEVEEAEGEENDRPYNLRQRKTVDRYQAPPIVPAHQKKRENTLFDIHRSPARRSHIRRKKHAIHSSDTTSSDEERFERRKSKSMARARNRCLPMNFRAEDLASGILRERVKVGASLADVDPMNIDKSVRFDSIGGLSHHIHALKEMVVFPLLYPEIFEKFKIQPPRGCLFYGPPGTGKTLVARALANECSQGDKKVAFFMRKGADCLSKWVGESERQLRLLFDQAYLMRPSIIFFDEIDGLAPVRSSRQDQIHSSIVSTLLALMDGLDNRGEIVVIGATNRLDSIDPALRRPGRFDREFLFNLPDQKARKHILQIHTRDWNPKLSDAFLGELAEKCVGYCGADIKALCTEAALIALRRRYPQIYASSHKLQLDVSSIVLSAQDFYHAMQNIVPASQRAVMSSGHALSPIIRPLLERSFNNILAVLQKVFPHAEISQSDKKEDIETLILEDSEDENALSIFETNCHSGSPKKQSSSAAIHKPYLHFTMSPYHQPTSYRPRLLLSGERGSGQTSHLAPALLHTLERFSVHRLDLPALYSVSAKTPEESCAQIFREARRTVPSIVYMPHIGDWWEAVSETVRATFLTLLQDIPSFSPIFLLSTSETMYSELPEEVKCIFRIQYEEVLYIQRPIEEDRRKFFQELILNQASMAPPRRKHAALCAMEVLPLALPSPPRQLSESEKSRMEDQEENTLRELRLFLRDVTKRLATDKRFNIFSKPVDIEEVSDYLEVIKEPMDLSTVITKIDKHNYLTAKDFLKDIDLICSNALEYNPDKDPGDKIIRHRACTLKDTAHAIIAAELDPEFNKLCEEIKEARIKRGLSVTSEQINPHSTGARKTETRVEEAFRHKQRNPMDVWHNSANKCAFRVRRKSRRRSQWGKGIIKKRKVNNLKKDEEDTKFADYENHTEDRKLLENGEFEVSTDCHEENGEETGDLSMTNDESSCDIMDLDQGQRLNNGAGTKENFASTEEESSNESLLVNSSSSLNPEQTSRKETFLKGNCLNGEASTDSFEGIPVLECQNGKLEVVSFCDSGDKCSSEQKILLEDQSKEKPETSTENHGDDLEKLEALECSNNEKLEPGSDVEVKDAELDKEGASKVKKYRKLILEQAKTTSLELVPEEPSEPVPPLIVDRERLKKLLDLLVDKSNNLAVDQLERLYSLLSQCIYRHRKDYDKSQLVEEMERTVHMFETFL
Compound,Kd [1],Kd [2]
CC(=O)NCCCC[C@H](NC(=O)[C@H](CC(=O)O)NC(=O)[C@H](CCCNC(=N)N)NC(=O)CNC(=O)[C@@H](N)CO)C(=O)NCC(=O)NCC(=O)N[C@@H](CCCCN)C(=O)NCC(=O)N[C@@H](CC(C)C)C(=O)NCC(=O)N[C@@H](CCCCN)C(=O)NCC(=O)NCC(=O)N[C@@H](C)C(=O)O,Not Active,Not Active
H-AGGK(Ac)AGK(Ac)DSGKAKTK-OH,Not Active,Not Active
H-AGGKAGKDSGKAKTK-OH,Not Active,Not Active
H-SGRGKTGGKARAKAKSR-OH,Not Active,Not Active

# Other lines, results leading:
Kd [1],Kd [2],Compound
Not Active,Not Active,CC(=O)NCCCC[C@H](NC(=O)[C@H](CO)NC(=O)[C@H](CCCNC(=N)N)NC(=O)CNC(=O)[C@@H](N)CO)C(=O)NCC(=O)NCC(=O)N[C@@H](CCCCN)C(=O)NCC(=O)N[C@@H](CC(C)C)C(=O)NCC(=O)N[C@@H](CCCCN)C(=O)NCC(=O)NCC(=O)N[C@@H](C)C(=O)O
Not Active,–,H-AGGK(Ac)AGKDSGKAKTK-OH
